The target of the data set is Mmp7 (rat). The data set can be described thus: reporter assay of Huesken 2005. The settings on record: siRNA.

Oligonucleotides are given in HELM: sugar(base)linkage, 5' to 3'; d 2'-deoxyribose, r ribose, m 2'-O-methylribose, p phosphate. ss, as = sense and antisense strand
Note: test concentration or dose not given here.

In the case of “RNA1{r(G)p.r(A)p.r(G)p.r(G)p.r(G)p.r(A)p.r(A)p.r(A)p.r(U)p.r(G)p.r(C)p.r(A)p.r(G)p.r(A)p.r(A)p.r(G)p.r(U)p.r(U)p.r(C)p.d(T)p.d(T)}|RNA2{r(G)p.r(A)p.r(A)p.r(C)p.r(U)p.r(U)p.r(C)p.r(U)p.r(G)p.r(C)p.r(A)p.r(U)p.r(U)p.r(U)p.r(C)p.r(C)p.r(C)p.r(U)p.r(C)p.d(A)p.d(G)}$$$RNA1{StrandType:ss}|RNA2{StrandType:as}$”, the normalised inhibition (eCFP-eYFP dual reporter) turned out to be 97.5%.

For “RNA1{r(U)p.r(C)p.r(A)p.r(C)p.r(G)p.r(A)p.r(C)p.r(U)p.r(C)p.r(U)p.r(A)p.r(A)p.r(A)p.r(A)p.r(C)p.r(A)p.r(A)p.r(A)p.r(G)p.d(T)p.d(T)}|RNA2{r(C)p.r(U)p.r(U)p.r(U)p.r(G)p.r(U)p.r(U)p.r(U)p.r(U)p.r(A)p.r(G)p.r(A)p.r(G)p.r(U)p.r(C)p.r(G)p.r(U)p.r(G)p.r(A)p.d(A)p.d(G)}$$$RNA1{StrandType:ss}|RNA2{StrandType:as}$”, the normalised inhibition (eCFP-eYFP dual reporter) came out at 108%.

In the case of “RNA1{r(G)p.r(C)p.r(C)p.r(A)p.r(C)p.r(U)p.r(C)p.r(A)p.r(U)p.r(G)p.r(A)p.r(A)p.r(C)p.r(U)p.r(U)p.r(G)p.r(G)p.r(C)p.r(C)p.d(T)p.d(T)}|RNA2{r(G)p.r(G)p.r(C)p.r(C)p.r(A)p.r(A)p.r(G)p.r(U)p.r(U)p.r(C)p.r(A)p.r(U)p.r(G)p.r(A)p.r(G)p.r(U)p.r(G)p.r(G)p.r(C)p.d(A)p.d(A)}$$$RNA1{StrandType:ss}|RNA2{StrandType:as}$”, the normalised inhibition (eCFP-eYFP dual reporter) worked out at 62.2%.

As for “RNA1{r(A)p.r(U)p.r(U)p.r(U)p.r(G)p.r(A)p.r(U)p.r(G)p.r(G)p.r(G)p.r(C)p.r(C)p.r(A)p.r(G)p.r(G)p.r(A)p.r(A)p.r(A)p.r(C)p.d(T)p.d(T)}|RNA2{r(G)p.r(U)p.r(U)p.r(U)p.r(C)p.r(C)p.r(U)p.r(G)p.r(G)p.r(C)p.r(C)p.r(C)p.r(A)p.r(U)p.r(C)p.r(A)p.r(A)p.r(A)p.r(U)p.d(G)p.d(G)}$$$RNA1{StrandType:ss}|RNA2{StrandType:as}$”, the normalised inhibition (eCFP-eYFP dual reporter) was 10.5%.

As to “RNA1{r(U)p.r(G)p.r(A)p.r(A)p.r(C)p.r(U)p.r(U)p.r(C)p.r(C)p.r(U)p.r(G)p.r(U)p.r(U)p.r(U)p.r(G)p.r(U)p.r(U)p.r(G)p.r(C)p.d(T)p.d(T)}|RNA2{r(G)p.r(C)p.r(A)p.r(A)p.r(C)p.r(A)p.r(A)p.r(A)p.r(C)p.r(A)p.r(G)p.r(G)p.r(A)p.r(A)p.r(G)p.r(U)p.r(U)p.r(C)p.r(A)p.d(C)p.d(G)}$$$RNA1{StrandType:ss}|RNA2{StrandType:as}$”, the normalised inhibition (eCFP-eYFP dual reporter) turned out to be 33.7%.

On to “RNA1{r(A)p.r(A)p.r(C)p.r(U)p.r(U)p.r(C)p.r(C)p.r(C)p.r(A)p.r(U)p.r(U)p.r(U)p.r(G)p.r(A)p.r(U)p.r(G)p.r(G)p.r(G)p.r(C)p.d(T)p.d(T)}|RNA2{r(G)p.r(C)p.r(C)p.r(C)p.r(A)p.r(U)p.r(C)p.r(A)p.r(A)p.r(A)p.r(U)p.r(G)p.r(G)p.r(G)p.r(A)p.r(A)p.r(G)p.r(U)p.r(U)p.d(G)p.d(T)}$$$RNA1{StrandType:ss}|RNA2{StrandType:as}$”, for which the normalised inhibition (eCFP-eYFP dual reporter) turned out to be 0.2%.

Regarding “RNA1{r(G)p.r(C)p.r(C)p.r(A)p.r(G)p.r(G)p.r(C)p.r(C)p.r(U)p.r(C)p.r(G)p.r(G)p.r(C)p.r(G)p.r(G)p.r(A)p.r(G)p.r(A)p.r(U)p.d(T)p.d(T)}|RNA2{r(A)p.r(U)p.r(C)p.r(U)p.r(C)p.r(C)p.r(G)p.r(C)p.r(C)p.r(G)p.r(A)p.r(G)p.r(G)p.r(C)p.r(C)p.r(U)p.r(G)p.r(G)p.r(C)p.d(C)p.d(C)}$$$RNA1{StrandType:ss}|RNA2{StrandType:as}$”, the normalised inhibition (eCFP-eYFP dual reporter) turned out to be 36.1%.

In the case of “RNA1{r(U)p.r(C)p.r(A)p.r(A)p.r(G)p.r(A)p.r(G)p.r(G)p.r(G)p.r(U)p.r(U)p.r(A)p.r(G)p.r(U)p.r(U)p.r(G)p.r(G)p.r(G)p.r(G)p.d(T)p.d(T)}|RNA2{r(C)p.r(C)p.r(C)p.r(C)p.r(A)p.r(A)p.r(C)p.r(U)p.r(A)p.r(A)p.r(C)p.r(C)p.r(C)p.r(U)p.r(C)p.r(U)p.r(U)p.r(G)p.r(A)p.d(A)p.d(G)}$$$RNA1{StrandType:ss}|RNA2{StrandType:as}$”, the normalised inhibition (eCFP-eYFP dual reporter) amounted to 40.8%.

“RNA1{r(G)p.r(A)p.r(C)p.r(U)p.r(U)p.r(C)p.r(A)p.r(G)p.r(U)p.r(C)p.r(U)p.r(U)p.r(A)p.r(C)p.r(A)p.r(A)p.r(A)p.r(G)p.r(G)p.d(T)p.d(T)}|RNA2{r(C)p.r(C)p.r(U)p.r(U)p.r(U)p.r(G)p.r(U)p.r(A)p.r(A)p.r(G)p.r(A)p.r(C)p.r(U)p.r(G)p.r(A)p.r(A)p.r(G)p.r(U)p.r(C)p.d(T)p.d(T)}$$$RNA1{StrandType:ss}|RNA2{StrandType:as}$”: the normalised inhibition (eCFP-eYFP dual reporter) came to 92.9%.

Take “RNA1{r(C)p.r(U)p.r(G)p.r(G)p.r(G)p.r(U)p.r(C)p.r(U)p.r(G)p.r(G)p.r(G)p.r(U)p.r(C)p.r(A)p.r(C)p.r(U)p.r(C)p.r(U)p.r(U)p.d(T)p.d(T)}|RNA2{r(A)p.r(A)p.r(G)p.r(A)p.r(G)p.r(U)p.r(G)p.r(A)p.r(C)p.r(C)p.r(C)p.r(A)p.r(G)p.r(A)p.r(C)p.r(C)p.r(C)p.r(A)p.r(G)p.d(A)p.d(G)}$$$RNA1{StrandType:ss}|RNA2{StrandType:as}$”: the normalised inhibition (eCFP-eYFP dual reporter) stood at 87.6%.

Turning to “RNA1{r(C)p.r(G)p.r(C)p.r(A)p.r(A)p.r(G)p.r(G)p.r(G)p.r(G)p.r(A)p.r(G)p.r(A)p.r(U)p.r(C)p.r(A)p.r(C)p.r(G)p.r(G)p.r(A)p.d(T)p.d(T)}|RNA2{r(U)p.r(C)p.r(C)p.r(G)p.r(U)p.r(G)p.r(A)p.r(U)p.r(C)p.r(U)p.r(C)p.r(C)p.r(C)p.r(C)p.r(U)p.r(U)p.r(G)p.r(C)p.r(G)p.d(A)p.d(A)}$$$RNA1{StrandType:ss}|RNA2{StrandType:as}$”, the normalised inhibition (eCFP-eYFP dual reporter) is 97.3%.

As to “RNA1{r(C)p.r(G)p.r(A)p.r(C)p.r(U)p.r(C)p.r(U)p.r(A)p.r(A)p.r(A)p.r(A)p.r(C)p.r(A)p.r(A)p.r(A)p.r(G)p.r(A)p.r(A)p.r(G)p.d(T)p.d(T)}|RNA2{r(C)p.r(U)p.r(U)p.r(C)p.r(U)p.r(U)p.r(U)p.r(G)p.r(U)p.r(U)p.r(U)p.r(U)p.r(A)p.r(G)p.r(A)p.r(G)p.r(U)p.r(C)p.r(G)p.d(T)p.d(G)}$$$RNA1{StrandType:ss}|RNA2{StrandType:as}$”, the normalised inhibition (eCFP-eYFP dual reporter) is 113%.

“RNA1{r(G)p.r(G)p.r(G)p.r(A)p.r(A)p.r(C)p.r(A)p.r(G)p.r(G)p.r(C)p.r(G)p.r(C)p.r(A)p.r(G)p.r(A)p.r(A)p.r(U)p.r(U)p.r(A)p.d(T)p.d(T)}|RNA2{r(U)p.r(A)p.r(A)p.r(U)p.r(U)p.r(C)p.r(U)p.r(G)p.r(C)p.r(G)p.r(C)p.r(C)p.r(U)p.r(G)p.r(U)p.r(U)p.r(C)p.r(C)p.r(C)p.d(A)p.d(C)}$$$RNA1{StrandType:ss}|RNA2{StrandType:as}$”: the normalised inhibition (eCFP-eYFP dual reporter) turned out to be 93.6%.

As to “RNA1{r(G)p.r(G)p.r(G)p.r(G)p.r(C)p.r(C)p.r(A)p.r(G)p.r(G)p.r(C)p.r(C)p.r(U)p.r(C)p.r(G)p.r(G)p.r(C)p.r(G)p.r(G)p.r(A)p.d(T)p.d(T)}|RNA2{r(U)p.r(C)p.r(C)p.r(G)p.r(C)p.r(C)p.r(G)p.r(A)p.r(G)p.r(G)p.r(C)p.r(C)p.r(U)p.r(G)p.r(G)p.r(C)p.r(C)p.r(C)p.r(C)p.d(G)p.d(G)}$$$RNA1{StrandType:ss}|RNA2{StrandType:as}$”, the normalised inhibition (eCFP-eYFP dual reporter) came to 50.8%.

On to “RNA1{r(G)p.r(A)p.r(A)p.r(C)p.r(U)p.r(U)p.r(C)p.r(C)p.r(U)p.r(G)p.r(U)p.r(U)p.r(U)p.r(G)p.r(U)p.r(U)p.r(G)p.r(C)p.r(C)p.d(T)p.d(T)}|RNA2{r(G)p.r(G)p.r(C)p.r(A)p.r(A)p.r(C)p.r(A)p.r(A)p.r(A)p.r(C)p.r(A)p.r(G)p.r(G)p.r(A)p.r(A)p.r(G)p.r(U)p.r(U)p.r(C)p.d(A)p.d(C)}$$$RNA1{StrandType:ss}|RNA2{StrandType:as}$”, for which the normalised inhibition (eCFP-eYFP dual reporter) amounted to 53.6%.

“RNA1{r(A)p.r(C)p.r(U)p.r(C)p.r(A)p.r(G)p.r(G)p.r(C)p.r(G)p.r(U)p.r(G)p.r(A)p.r(A)p.r(C)p.r(U)p.r(U)p.r(C)p.r(C)p.r(U)p.d(T)p.d(T)}|RNA2{r(A)p.r(G)p.r(G)p.r(A)p.r(A)p.r(G)p.r(U)p.r(U)p.r(C)p.r(A)p.r(C)p.r(G)p.r(C)p.r(C)p.r(U)p.r(G)p.r(A)p.r(G)p.r(U)p.d(C)p.d(C)}$$$RNA1{StrandType:ss}|RNA2{StrandType:as}$”: the normalised inhibition (eCFP-eYFP dual reporter) worked out at 73.1%.

“RNA1{r(G)p.r(A)p.r(A)p.r(A)p.r(C)p.r(A)p.r(C)p.r(U)p.r(C)p.r(U)p.r(A)p.r(G)p.r(G)p.r(C)p.r(C)p.r(A)p.r(U)p.r(G)p.r(C)p.d(T)p.d(T)}|RNA2{r(G)p.r(C)p.r(A)p.r(U)p.r(G)p.r(G)p.r(C)p.r(C)p.r(U)p.r(A)p.r(G)p.r(A)p.r(G)p.r(U)p.r(G)p.r(U)p.r(U)p.r(U)p.r(C)p.d(C)p.d(T)}$$$RNA1{StrandType:ss}|RNA2{StrandType:as}$”: the normalised inhibition (eCFP-eYFP dual reporter) was determined as 53.7%.

On to “RNA1{r(A)p.r(A)p.r(U)p.r(U)p.r(U)p.r(U)p.r(A)p.r(C)p.r(C)p.r(U)p.r(U)p.r(C)p.r(A)p.r(C)p.r(G)p.r(A)p.r(C)p.r(U)p.r(C)p.d(T)p.d(T)}|RNA2{r(G)p.r(A)p.r(G)p.r(U)p.r(C)p.r(G)p.r(U)p.r(G)p.r(A)p.r(A)p.r(G)p.r(G)p.r(U)p.r(A)p.r(A)p.r(A)p.r(A)p.r(U)p.r(U)p.d(T)p.d(C)}$$$RNA1{StrandType:ss}|RNA2{StrandType:as}$”, for which the normalised inhibition (eCFP-eYFP dual reporter) came to 76.1%.

With “RNA1{r(G)p.r(G)p.r(U)p.r(C)p.r(U)p.r(G)p.r(G)p.r(G)p.r(U)p.r(C)p.r(A)p.r(C)p.r(U)p.r(C)p.r(U)p.r(U)p.r(C)p.r(U)p.r(G)p.d(T)p.d(T)}|RNA2{r(C)p.r(A)p.r(G)p.r(A)p.r(A)p.r(G)p.r(A)p.r(G)p.r(U)p.r(G)p.r(A)p.r(C)p.r(C)p.r(C)p.r(A)p.r(G)p.r(A)p.r(C)p.r(C)p.d(C)p.d(A)}$$$RNA1{StrandType:ss}|RNA2{StrandType:as}$”, the normalised inhibition (eCFP-eYFP dual reporter) was 73.8%.

For the substance “RNA1{r(U)p.r(G)p.r(A)p.r(G)p.r(U)p.r(A)p.r(C)p.r(U)p.r(G)p.r(G)p.r(A)p.r(C)p.r(G)p.r(G)p.r(A)p.r(U)p.r(G)p.r(G)p.r(U)p.d(T)p.d(T)}|RNA2{r(A)p.r(C)p.r(C)p.r(A)p.r(U)p.r(C)p.r(C)p.r(G)p.r(U)p.r(C)p.r(C)p.r(A)p.r(G)p.r(U)p.r(A)p.r(C)p.r(U)p.r(C)p.r(A)p.d(T)p.d(C)}$$$RNA1{StrandType:ss}|RNA2{StrandType:as}$”, the normalised inhibition (eCFP-eYFP dual reporter) was found to be 63.1%.
